This is an account of results in US8044198B2, “Sirtuin modulating compounds” (Sirtris Pharmaceuticals, Inc., priority 2005, dated 2011).

One assay has as its system NCI-H358 cells. Description: Cellular ATP Assay (ATPLite 1Step normalized to AlamarBlue viability). The assay is classed as cell-based. The note with it: Homo sapiens, compounds that raised intracellular ATP levels, read-out: ED50 ATP ASSAY. How it is done: Cellular ATP levels are an indirect measurement of cellular metabolic rates and, by extension, mitochondrial function. […] The ATP assay is combined with a cellular viability assay so that cellular ATP levels can be normalized to viable cells. Cellular ATP levels were measured using the ATPLite 1Step Kit (PerkinElmer) and cellular viability was measured using the cell permeable dye, AlamarBlue™.
The Cellular ATP Assay is a multiplexed assay that measures both ATP levels and viability of a given cell sample. This assay is run in a 96-well Assay Plate and data are reported as the [ATP]/viability for each well in the Assay Plate.
The ATPLite 1 Step™ Kit is a single-step luminescent cell-based assay for detection of ATP. The kit contains lyophilized substrate mixture, comprised of D-luciferin and the firefly (Photinus pyralis) enzyme luciferase. Additionally, the kit contains a detergent-based reconstitution buffer that induces the lysis of cellular membranes. The luciferase in the assay mixture catalyzes a reaction between the free cellular ATP and D-luciferin to produce bioluminescence according to the schematic reaction outlined below. The amount of light produced is proportional to the cellular ATP concentration.
The AlamarBlue™ Assay is a single-step assay that utilizes a soluble, non-toxic, cell permeable dye that is added to cell growth media. This dye undergoes electron reduction in viable cells but not dead cells. The reduced dye product gives a fluorescent signal which can be monitored with a fluorescence plate reader (excitation 545 nm and emission 575 nm). The amount of fluorescence generated in a given well is proportional to the number of viable cells. The viability signal generated by this assay is used to normalize the ATP signal from the ATPLite 1Step™ assay results.
The material was dissolved in 100% vehicle (DMSO) to yield a final concentration of 10 mM (stock solution). The stock solution was serially diluted with 100% DMSO as described in SOP 7.10.
In this assay NCI-H358 cells (obtained from the American Tissue Culture Collection, ATCC) were seeded in 96 well microplates (10^4 cells/well). The NCI-H358 Growth Culture Media consists of RPMI 1640 Media supplemented with 10% FBS, […] streptomycin, and 100 units/mL penicillin. […] After 48 hours of compound treatment under cell growth conditions, plates were removed from incubator, and 15 μl of AlamarBlue™ dye was added to each well. Cell microplates were incubated with dye for 2 hours under growth conditions, and fluorescence was subsequently measured using a plate reader. Media containing AlamarBlue™ was removed, and plates were washed in 100 μl of PBS per well. This wash was removed, and 200 μl of 1×ATPLite 1Step reagent was added to each well. Luminescence was then measured using a plate reader. The ATP signal for each well, measured by the luminescence scan, was normalized to its corresponding cell viability value, measured by the fluorescence scan, to generate the average ATP level per viable cell unit (ATP/vCell). The ATP/vCell for each treatment was then normalized to the average vehicle ATP/vCell for its respective cell microplate, yielding the normalized ATP/vCell (norm. ATP/vCell). Finally, the norm. ATP/vCell for each unique treatment was averaged across plate replicates, generating the average norm. ATP/vCell.
Each of these ATP levels was normalized to the cell viability in the corresponding treatment well, generating the ATP/vCell value. Each ATP/vCell value was subsequently normalized to its average Vehicle ATP/vCell values for its respective cell microplate.
Data are represented as the normalized ATP/vCell (arbitrary units). […] These values represent an average of three plate replicates.
A number of compounds were screened for their affect on ATP levels in the assay as described in Example 5. […] NA means that the compound was not tested using the indicated assay.

For the next assay, the target named is T1, SIRT1 (Homo sapiens, UniProt Q96EB6).
T1 sequence (Q96EB6 1-747): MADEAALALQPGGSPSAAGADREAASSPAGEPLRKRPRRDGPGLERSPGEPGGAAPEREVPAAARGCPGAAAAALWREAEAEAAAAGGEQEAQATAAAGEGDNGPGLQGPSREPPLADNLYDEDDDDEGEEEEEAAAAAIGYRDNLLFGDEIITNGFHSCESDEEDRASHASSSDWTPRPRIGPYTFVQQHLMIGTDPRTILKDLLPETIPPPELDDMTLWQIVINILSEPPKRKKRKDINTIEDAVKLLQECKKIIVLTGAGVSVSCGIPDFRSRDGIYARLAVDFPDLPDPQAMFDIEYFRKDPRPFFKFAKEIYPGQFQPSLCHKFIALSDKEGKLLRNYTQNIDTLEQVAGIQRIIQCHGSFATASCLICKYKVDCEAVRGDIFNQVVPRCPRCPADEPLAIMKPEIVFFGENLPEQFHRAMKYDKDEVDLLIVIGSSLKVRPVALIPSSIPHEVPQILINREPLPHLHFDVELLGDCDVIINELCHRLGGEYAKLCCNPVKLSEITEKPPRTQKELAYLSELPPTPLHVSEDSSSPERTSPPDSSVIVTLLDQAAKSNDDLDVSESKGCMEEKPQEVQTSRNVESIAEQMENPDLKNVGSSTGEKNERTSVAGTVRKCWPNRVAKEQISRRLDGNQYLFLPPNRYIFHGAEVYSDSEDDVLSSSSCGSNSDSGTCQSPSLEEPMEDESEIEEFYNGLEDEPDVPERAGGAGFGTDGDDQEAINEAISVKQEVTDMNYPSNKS
Kind of assay: SIRT1 mass spectrometry (MS) based deacetylation assay. Type of assay: biochemical. The settings on record: for EC50: SIRT1 activation, mass spectrometry assay, read-out: ED50 MS ASSAY; for FOLD ACT. MS: SIRT1 fold activation as determined by MS.

Structures are written as SMILES. A value given as a limit tells only on which side of the number the result lay.

Take `O=C(Nc1ccc2c(c1)OCO2)N1CCCN(c2nc3ccccc3o2)CC1` [Compound 90]: the EC50 in the assay with NCI-H358 cells is more than 150 µM.
Same read-out and setting: as for `COc1cccc(OC)c1C(=O)Nc1cccc(-c2nc3ccccc3s2)c1` [Compound 120], the figure is less than 50 µM; as for `COc1cc(C(=O)Nc2cccc(-c3nc4cc(Cl)cc(Cl)c4o3)c2)cc(OC)c1OC` [Compound 123], more than 150 µM.
In the case of `O=C(Nc1ccccc1-c1cn2c(CN3CCC(F)CC3)csc2n1)c1cnc2ccccc2n1` [Compound 714], at SIRT1, the EC50 fell in the range of 5 to 50 µM and the “FOLD ACT. MS” value is “B (B (Fold Activation <250%))”.
The like results for `O=C(Nc1ccccc1-c1cn2c(CN3CCSC3)csc2n1)c1cnc2ccccc2n1` [Compound 715] were, in that order, less than 5 µM and “B (B (Fold Activation <250%))”.
For the compound `NC1CCN(Cc2csc3nc(-c4ccccc4NC(=O)c4cnc5ccccc5n4)cn23)CC1` [Compound 716], on SIRT1, the EC50 was less than 5 µM and the “FOLD ACT. MS” value was “A (A (Fold activation >250%))”.
The like results for `O=C(Nc1ccccc1-c1cn2c(CN3CC(F)(F)C3)csc2n1)c1cnc2ccccc2n1` [Compound 717] were, in that order, 5 to 50 µM and “B (B (Fold Activation <250%))”.
For the compound `O=C(Nc1ccccc1-c1cn2c(C(=O)O)csc2n1)c1cnc2ccccc2n1` [Compound 719], at SIRT1, the EC50 lay within 5 to 50 µM and the “FOLD ACT. MS” value is “A (A (Fold activation >250%))”.
The like results for `O=C(O)Cc1csc2nc(-c3ccccc3NC(=O)c3cnc4ccccc4n3)cn12` [Compound 721] were, in that order, 5 to 50 µM and “A (A (Fold activation >250%))”.
On to `COc1cc(OC)cc(C(=O)Nc2ccccc2-c2nc3cc(CN(C)C)cnc3s2)c1` [Compound 722], for which, on SIRT1, the EC50 is less than 5 µM and the “FOLD ACT. MS” value is recorded as “A (A (Fold activation >250%))”.
Take `COc1cc(OC)cc(C(=O)Nc2ccccc2-c2nc3c(CN4CCNCC4)ccnc3s2)c1` [Compound 723]: on SIRT1, the EC50 was in the range of 5 to 50 µM and the “FOLD ACT. MS” value is on record as “A (A (Fold activation >250%))”.
The like results for `O=C(Nc1ccccc1-c1nc2cc(CN3CCOCC3)cnc2s1)c1ccc2ccccc2n1` [Compound 724] were, in that order, less than 5 µM and “A (A (Fold activation >250%))”.
The like results for `COc1cc(OC)cc(C(=O)Nc2ccccc2-c2nc3cc(CN4CCN(C)CC4)cnc3s2)c1` [Compound 725] were, in that order, less than 5 µM and “A (A (Fold activation >250%))”.
For the compound `COc1cc(OC)cc(C(=O)Nc2ccccc2-c2nc3ccc(CN4CCNCC4)nc3s2)c1` [Compound 726], on SIRT1, the EC50 was less than 5 µM and the “FOLD ACT. MS” value is reported as “A (A (Fold activation >250%))”.
Take `Cc1ccc(C(=O)Nc2ccccc2-c2nc3ccc(CN4CCNCC4)nc3s2)cc1C` [Compound 727]: on SIRT1, the EC50 was less than 5 µM and the “FOLD ACT. MS” value is recorded as “A (A (Fold activation >250%))”.
With `O=C(Nc1ccccc1-c1nc2ccc(CN3CCNCC3)nc2s1)c1ccc(F)c(F)c1` [Compound 728], on SIRT1, the EC50 fell in the range of 5 to 50 µM and the “FOLD ACT. MS” value was “A (A (Fold activation >250%))”.
As for `O=C(Nc1ccccc1-c1nc2ccc(CN3CCNCC3)nc2s1)c1ccc2ccccc2n1` [Compound 729], at SIRT1, the EC50 was less than 5 µM and the “FOLD ACT. MS” value is “A (A (Fold activation >250%))”.
As to `O=C(Nc1ccccc1-c1nc2cc(CN3CCNCC3)cnc2s1)c1ccc2ncsc2c1` [Compound 730], on SIRT1, the EC50 fell in the range of 5 to 50 µM and the “FOLD ACT. MS” value is given as “A (A (Fold activation >250%))”.
The like results for `O=C(Nc1ccccc1-c1nc2cc(CN3CCNCC3)cnc2s1)c1cccc(C(F)(F)F)c1` [Compound 731] were, in that order, 5 to 50 µM and “A (A (Fold activation >250%))”.
Regarding `O=C(Nc1ccccc1-c1nc2cc(CN3CCNCC3)cnc2s1)c1cc(-c2ccccc2)no1` [Compound 732], at SIRT1, the EC50 was less than 5 µM and the “FOLD ACT. MS” value is reported as “B (B (Fold Activation <250%))”.
`O=C(Nc1ccccc1-c1cn2c(CN3CCNCC3)csc2n1)c1cccc(-c2cc[nH]n2)c1` [Compound 733]: at SIRT1, the EC50 was less than 5 µM and the “FOLD ACT. MS” value was “A (A (Fold activation >250%))”.
As for `COc1ccc(-c2cc(C(=O)Nc3ccccc3-c3cn4c(CN5CCNCC5)csc4n3)[nH]n2)cc1` [Compound 735], on SIRT1, the EC50 is less than 5 µM and the “FOLD ACT. MS” value is listed as “A (A (Fold activation >250%))”.
Regarding `COc1ccc(-c2ccc(C(=O)Nc3ccccc3-c3cn4c(CN5CCNCC5)csc4n3)o2)cc1` [Compound 736], at SIRT1, the EC50 was less than 5 µM and the “FOLD ACT. MS” value is “A (A (Fold activation >250%))”.
Consider `O=C(Nc1ccccc1-c1cn2c(CN3CCNCC3)csc2n1)c1cccc(SC(F)F)c1` [Compound 737], for which, on SIRT1, the EC50 was less than 5 µM and the “FOLD ACT. MS” value is recorded as “A (A (Fold activation >250%))”.
The corresponding values for `COc1cccc(C(=O)Nc2ccccc2-c2cn3c(CN4CCNCC4)csc3n2)c1` [Compound 738] are 5 to 50 µM and “A (A (Fold activation >250%))”.
In the case of `COc1cc(C(=O)Nc2ccccc2-c2cn3c(C)csc3n2)cc(OC)c1OC` [Compound 739], on SIRT1, the EC50 was less than 5 µM and the “FOLD ACT. MS” value is on record as “A (A (Fold activation >250%))”.
With `Cc1csc2nc(-c3ccccc3NC(=O)c3cccc(N(C)C)c3)cn12` [Compound 740], at SIRT1, the EC50 was less than 5 µM and the “FOLD ACT. MS” value is on record as “B (B (Fold Activation <250%))”.
With `CN1CCN(Cc2csc3nc(-c4ccccc4NC(=O)c4cnc5ccccc5n4)cn23)C(=O)C1` [Compound 741], on SIRT1, the EC50 is less than 5 µM and the “FOLD ACT. MS” value is “A (A (Fold activation >250%))”.
In the case of `O=C(Nc1ccccc1-c1cn2c(CN3CCSCC3)csc2n1)c1cnc2ccccc2n1` [Compound 742], at SIRT1, the EC50 is less than 5 µM and the “FOLD ACT. MS” value was “B (B (Fold Activation <250%))”.
For `COc1cc(F)cc(C(=O)Nc2ccccc2-c2cn3c(CN4CCNCC4)csc3n2)c1` [Compound 743], at SIRT1, the EC50 is 5 to 50 µM and the “FOLD ACT. MS” value is given as “A (A (Fold activation >250%))”.
The like results for `O=C(Nc1ccccc1-c1cn2c(CN3CCNCC3)csc2n1)c1cccnc1F` [Compound 744] were, in that order, 51 to 100 µM and “A (A (Fold activation >250%))”.
Consider `O=C(Nc1ccccc1-c1cn2c(Cn3ccnc3)csc2n1)c1cnc2ccccc2n1` [Compound 745], for which, on SIRT1, the EC50 was less than 5 µM and the “FOLD ACT. MS” value is recorded as “A (A (Fold activation >250%))”.
